Usually Ki stands for the dissociation constant of the complex between target and ligand, obtained from inhibition or displacement.

These results are taken from publication PMC2990764, “Evolution of Allosteric Citrate Binding Sites on 6-phosphofructo-1-kinase” (PLoS ONE, 2010).

What all share (assay): coupled spectrophotometric PFK1 assay ([…] nm) with purified enzyme
Assay type in all cases: biochemical

Assay [1] deals with T1, human muscle type 6-phosphofructo-1-kinase (PFK-M) (Homo sapiens, UniProt P08237, K557R).
T1 construct: gene PFKM; recombinant human PFK-M mutant expressed in E. coli RL257
T1 sequence (P08237 2-780 K557R): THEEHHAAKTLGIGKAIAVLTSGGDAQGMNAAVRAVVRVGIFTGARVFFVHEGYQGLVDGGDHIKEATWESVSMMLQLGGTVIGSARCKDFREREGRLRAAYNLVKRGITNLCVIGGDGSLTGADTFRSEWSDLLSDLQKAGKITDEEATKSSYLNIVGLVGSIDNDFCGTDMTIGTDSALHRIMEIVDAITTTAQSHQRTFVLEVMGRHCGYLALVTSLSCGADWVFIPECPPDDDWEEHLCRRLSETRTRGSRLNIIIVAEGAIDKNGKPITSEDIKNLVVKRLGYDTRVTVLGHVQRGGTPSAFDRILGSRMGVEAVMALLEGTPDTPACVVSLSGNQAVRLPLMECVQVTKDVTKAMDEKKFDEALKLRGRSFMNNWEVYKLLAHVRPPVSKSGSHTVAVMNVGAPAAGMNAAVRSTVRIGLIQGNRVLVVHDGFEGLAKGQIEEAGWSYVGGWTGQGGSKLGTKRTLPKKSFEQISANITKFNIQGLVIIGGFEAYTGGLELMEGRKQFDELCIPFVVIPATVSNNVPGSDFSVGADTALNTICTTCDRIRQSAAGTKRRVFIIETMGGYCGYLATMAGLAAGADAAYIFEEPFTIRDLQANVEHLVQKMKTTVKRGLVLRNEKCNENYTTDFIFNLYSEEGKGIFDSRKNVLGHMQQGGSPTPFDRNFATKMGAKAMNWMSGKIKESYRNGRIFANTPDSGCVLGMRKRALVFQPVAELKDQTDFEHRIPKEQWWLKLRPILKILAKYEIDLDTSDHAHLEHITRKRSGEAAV

For assay [2], the target named is T2, human muscle type 6-phosphofructo-1-kinase (PFK-M) (Homo sapiens, UniProt P08237).
T2 construct: gene PFKM; recombinant native human PFK-M expressed in E. coli RL257
T2 sequence (P08237 2-780): T1 sequence (P08237 2-780 K557R) with R556K

For assay [3], the target named is T3, human muscle type 6-phosphofructo-1-kinase (PFK-M) (Homo sapiens, UniProt P08237, K617A).
T3 construct: gene PFKM; recombinant human PFK-M mutant expressed in E. coli RL257
T3 sequence (P08237 2-780 K617A): T1 sequence (P08237 2-780 K557R) with R556K, K616A

Substitutions are numbered along the chain they refer to.

Take `O=C(O)CC(O)(CC(=O)O)C(=O)O` [citrate]: the values for the Ki in assay [1], in assay [2] and in assay [3] were 300 µM, 50 µM and 500 µM, respectively.
